The subject of one test is primary human T-cells. The test is described as follows: T-cell proliferation assay (CellTiter-Glo). The test is classed as cell-based. As to conditions: CD3 condition; for pEC50: proliferation after 5 days, CellTiter-Glo, read-out: Tcell Proliferation CD3 EC50; for Emax: read-out: Emax proliferation (% activation). The essentials:
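Expanded primary human T-cells (100k/well) on plates coated with CD3 antibody or PBS only, given a 5- or 6-point dose response (top 20 or 10 μM final, 3.333-fold steps, 0.2% DMSO). ATP measured by CellTiter-Glo 2.0 luminescence after 5 days. Normalized to DMSO and 20 μM reference A1 (100%); EC50 and Emax reported for CD3 conditions.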
(In general: In ATP-based viability assays light output follows the ATP content of the culture.)

The target of a further test is DGKzeta (Homo sapiens, UniProt Q13574). Nature of the test: In vitro DGK inhibition assay (ADP-Glo, liposomes), DGKzeta. The test is classed as biochemical. Set-up: hDGKzeta(1-928)-N-His; His (N); made in house; host or cells: Sf21 insect cells (baculovirus). As to conditions: 2 nM DGK ζ, 50 μM ATP, 125 uM DLG in liposomes, 1 hour reaction. The essentials: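 DGKζ (2 nM) phosphorylated DLG presented in DLG/PS/PC liposomes (final DLG 125 μM) with 50 μM ATP for 1 hour. ADP formed was read by ADP-Glo luminescence. Compounds were tested as 11-point 1:3 dose responses in 2% final DMSO.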
DGKzeta, sequence (Q13574 whole entry): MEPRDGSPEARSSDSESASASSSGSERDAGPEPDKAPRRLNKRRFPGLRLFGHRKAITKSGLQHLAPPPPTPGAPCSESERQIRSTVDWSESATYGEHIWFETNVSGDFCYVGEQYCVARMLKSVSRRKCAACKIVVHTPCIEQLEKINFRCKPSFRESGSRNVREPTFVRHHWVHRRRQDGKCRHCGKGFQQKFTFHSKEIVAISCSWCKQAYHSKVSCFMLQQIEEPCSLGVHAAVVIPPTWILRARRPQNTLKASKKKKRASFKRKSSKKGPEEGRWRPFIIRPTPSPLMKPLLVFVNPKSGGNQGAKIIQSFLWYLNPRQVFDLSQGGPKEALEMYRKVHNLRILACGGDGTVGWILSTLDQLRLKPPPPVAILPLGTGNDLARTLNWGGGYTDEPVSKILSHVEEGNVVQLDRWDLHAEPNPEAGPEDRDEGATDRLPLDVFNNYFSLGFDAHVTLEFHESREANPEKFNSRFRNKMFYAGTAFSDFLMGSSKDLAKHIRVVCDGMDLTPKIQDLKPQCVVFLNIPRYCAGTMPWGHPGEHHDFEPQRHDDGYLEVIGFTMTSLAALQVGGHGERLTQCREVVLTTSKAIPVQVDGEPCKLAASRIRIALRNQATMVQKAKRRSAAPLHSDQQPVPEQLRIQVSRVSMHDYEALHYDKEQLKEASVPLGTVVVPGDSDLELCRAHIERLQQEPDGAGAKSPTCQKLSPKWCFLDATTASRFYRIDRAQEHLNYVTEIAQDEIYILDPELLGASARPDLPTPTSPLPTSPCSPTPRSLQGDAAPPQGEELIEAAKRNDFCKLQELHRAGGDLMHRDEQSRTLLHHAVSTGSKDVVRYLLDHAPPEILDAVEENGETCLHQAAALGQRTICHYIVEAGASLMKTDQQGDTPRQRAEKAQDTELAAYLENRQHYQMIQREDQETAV

The mark [1] stands for this setting: Homo sapiens, T-cell, 120 h, 5 days, 20 μM reference compound A1 = 100%.

The structures appear in SMILES notation. pEC50, pIC50: −log10 of the molar value. Where two headings read alike, the source gives them in different places.

As a reminder, the pIC50 is the IC50 on a negative log10 scale, so that one unit is a factor of ten. The low end stands for a high IC50, the high end for a low IC50. In the case of `CC(C)(c1nc(-c2cc3c(cc2F)[S+]([O-])C[C@H](N)C(=O)N3Cc2ccc(Oc3ccccc3)cc2)no1)S(C)(=O)=O` (stereo partly drawn) [Example 52, (3R)-3-amino-8-fluoro-7-[5-(1-methyl-1-methylsulfonyl-ethyl)-1,2,4-oxadiazol-3-yl]-1-oxo-5-[(4-phenoxyphenyl)methyl]-2,3-dihydro-1λ4,5-benzothiazepin-4-one], the “Emax proliferation (% activation)” value in the test on primary human T-cells (5 days, 20 μM reference compound A1 = 100%) is given as 181%. Also, in the test on primary human T-cells, the pEC50 was 6.01. On DGKzeta, this compound showed a negative-log IC50 (pIC50) of 6.38.

With `CC(C)(c1nnc(-c2ccc3c(c2)N(Cc2ccc(Oc4cccc(Cl)c4Cl)cc2)C(=O)[C@@H](N)CS3(=O)=O)o1)S(C)(=O)=O` [Example 32, (3R)-3-amino-5-[[4-(2,3-dichlorophenoxy)phenyl]methyl]-7-[5-(1-methyl-1-methylsulfonyl-ethyl)-1,3,4-oxadiazol-2-yl]-1,1-dioxo-2,3-dihydro-1λ6,5-benzothiazepin-4-one], the Emax in the test with primary human T-cells (setting [1]) came out at 75%. For the same compound, the pEC50 in the test with primary human T-cells (Homo sapiens, T-cell, 120 h) was 6.45. On DGKzeta, this compound gave a pIC50 of 6.05.

With `CC(C)(c1nnc(-c2ccc3c(c2)N(Cc2ccc(-c4ccc(C(F)(F)F)cc4)cc2)C(=O)[C@@H](N)CS3(=O)=O)o1)S(C)(=O)=O` [Example 56, (3R)-3-amino-7-[5-(1-methyl-1-methylsulfonyl-ethyl)-1,3,4-oxadiazol-2-yl]-1,1-dioxo-5-[[4-[4-(trifluoromethyl)phenyl]phenyl]methyl]-2,3-dihydro-1λ6,5-benzothiazepin-4-one], the Emax in the test with primary human T-cells (setting [1]) came out at 137%. The pEC50 with primary human T-cells (Homo sapiens, T-cell, 120 h) is 6.20. In addition, the pIC50 against DGKzeta was 5.05.

Consider `CC(C)(c1nnc(-c2ccc3c(c2)N(Cc2ccc(Oc4cccc(Cl)c4)cc2)C(=O)[C@@H](N)CS3(=O)=O)o1)S(C)(=O)=O` [Example 34, (3R)-3-amino-5-[[4-(3-chlorophenoxy)phenyl]methyl]-7-[5-(1-methyl-1-methylsulfonyl-ethyl)-1,3,4-oxadiazol-2-yl]-1,1-dioxo-2,3-dihydro-1λ6,5-benzothiazepin-4-one], for which the Emax in the test with primary human T-cells (setting [1]) was 127%. Besides, in the test with primary human T-cells (Homo sapiens, T-cell, 120 h), the pEC50 is 5.90. This compound had a pIC50 against DGKzeta of 5.96.

`CC(C)(c1nnc(-c2ccc3c(c2)N(Cc2ccc(Oc4cccc(OC(F)F)c4)cc2)C(=O)[C@@H](N)CS3(=O)=O)o1)S(C)(=O)=O` [Example 47, (3R)-3-amino-5-[[4-[3-(difluoromethoxy)phenoxy]phenyl]methyl]-7-[5-(1-methyl-1-methylsulfonyl-ethyl)-1,3,4-oxadiazol-2-yl]-1,1-dioxo-2,3-dihydro-1λ6,5-benzothiazepin-4-one]: the Emax with primary human T-cells (setting [1]) is 156%. Further, the pEC50 in the test on primary human T-cells (Homo sapiens, T-cell, 120 h) was 6.45. Further, on DGKzeta, the pIC50 is 6.33.

Consider `COc1ccc(-c2ccc(CN3C(=O)[C@@H](N)CS(=O)(=O)c4ccc(-c5noc(C(C)(C)S(C)(=O)=O)n5)cc43)cc2)cc1` [Example 63, (3R)-3-amino-5-[[4-(4-methoxyphenyl)phenyl]methyl]-7-[5-(1-methyl-1-methylsulfonyl-ethyl)-1,2,4-oxadiazol-3-yl]-1,1-dioxo-2,3-dihydro-1λ6,5-benzothiazepin-4-one], for which the Emax in the test on primary human T-cells (setting [1]) was determined as 98%. The pEC50 in the test with primary human T-cells (Homo sapiens, T-cell, 120 h) is 7.04. In addition, the pIC50 against DGKzeta was 5.63.

As for `CC1(c2nnc(-c3ccc4c(c3)N(Cc3ccc(Oc5ccccc5)cc3)C(=O)[C@@H](N)CS4(=O)=O)o2)CCCS1(=O)=O` (stereo partly drawn) [Example 58, (3R)-3-amino-7-[5-(2-methyl-1,1-dioxo-thiolan-2-yl)-1,3,4-oxadiazol-2-yl]-1,1-dioxo-5-[(4-phenoxyphenyl)methyl]-2,3-dihydro-1λ6,5-benzothiazepin-4-one], the Emax with primary human T-cells (setting [1]) amounted to 112%. Also, the pEC50 in the test on primary human T-cells (Homo sapiens, T-cell, 120 h) was 5.96. This compound gave a pIC50 against DGKzeta of 6.23.

The values are drawn from patent US20260035364A1, “BICYCLIC TETRAHYDROTHIAZEPINE DERIVATIVES” (Hoffmann-La Roche Inc., priority 2022, published 2026).
